Measured values: PMC6711031, “Discovery of new butyrylcholinesterase inhibitors via structure-based virtual screening” (Journal of Enzyme Inhibition and Medicinal Chemistry, 2019)
Read-outs that look alike come from different tables or passages of the source.

Biological target: T1, BChE from equine serum (Equus caballus, UniProt P81908)
T1 construct: BChE from equine serum (Sigma); purchased Sigma; host or cells: equine serum
Experiment: biochemical
Conditions: eqBChE 0.22 U/mL, Tris-HCl pH 8.0, 20 min preincubation at 37 °C, butyrylthiocholine iodide 0.5 mM, read at 412 nm
Protocol: Selected hits were obtained from NCI and they were provided as dry powders in variable quantities (5–10 mg). […] Subsequently, they were diluted to the required concentrations with Tris buffer pH 8.0 for the assay. Enzymatic inhibition assays were performed on BChE from equine serum (Sigma), according to the spectrophotometric Ellman's method. The experiment was performed in 48-well plates in a final volume of 100 µL. Each well contained 0.22 U/mL eqBChE dissolved in Tris–HCl buffer, pH 8.0. They were preincubated for 20 min at different compound concentrations at 37 °C. Then 0.5 mM butyrylthiocholine iodide (Sigma) and 0.35 mM 5,5′-dithiobis -2-nitrobenzoico (DTNB; Sigma) were added. Colour development was measured spectrophotometrically at 412 nm using microplate reader (BioTek ELx800) at a rate of one measurement per minute over 15 min period. […] All samples were assayed in at least duplicate measurements. In general, the amount of DMSO was kept below 1% in the assay. IC50 values were determined graphically from inhibition curves using Graph Pad prism version 6, Graph Pad Software, Inc..

T1 sequence (P81908 whole entry): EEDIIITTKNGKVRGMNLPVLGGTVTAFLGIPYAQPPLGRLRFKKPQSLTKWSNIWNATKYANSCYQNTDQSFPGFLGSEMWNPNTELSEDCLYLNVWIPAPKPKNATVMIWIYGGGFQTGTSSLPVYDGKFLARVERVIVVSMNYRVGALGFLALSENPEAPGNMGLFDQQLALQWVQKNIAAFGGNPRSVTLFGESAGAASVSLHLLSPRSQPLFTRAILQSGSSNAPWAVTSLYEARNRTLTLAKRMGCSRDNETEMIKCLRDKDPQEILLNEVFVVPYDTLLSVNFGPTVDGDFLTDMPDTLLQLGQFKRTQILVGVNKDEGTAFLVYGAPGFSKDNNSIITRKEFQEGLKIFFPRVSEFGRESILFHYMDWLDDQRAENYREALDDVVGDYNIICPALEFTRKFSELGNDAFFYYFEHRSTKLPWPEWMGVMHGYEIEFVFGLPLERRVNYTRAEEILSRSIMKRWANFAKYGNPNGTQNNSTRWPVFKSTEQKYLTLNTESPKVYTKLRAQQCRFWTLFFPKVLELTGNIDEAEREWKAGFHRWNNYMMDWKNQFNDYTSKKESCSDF

SMILES: O=C1CC2COc3ccc(OCCN4CCCC4)cc3C2=NN1c1ccccc1 (stereo not drawn) [Compound 4, 2-phenyl-9–(2-(pyrrolidin-1-yl)ethoxy)-4a,5-dihydro-2H-chromeno[4,3-c]pyridazin-3(4H)-one]
- IC50 (read-out: IC50 value): 8.3 ± 0.07 µM

SMILES: OC(c1ccccc1)C(NCCNCc1ccccc1)c1ccccc1 (stereo not drawn) [Compound 12, 2-[2-(benzylamino)ethylamino]-1,2-diphenylethanol]
- IC50 (read-out: IC50 value): 22.2 ± 0.12 µM

SMILES: NCCC1CCc2[nH]c3ccccc3c2C1 (stereo not drawn) [Compound 26, 2–(2,3,4,9-tetrahydro-1H-carbazol-3-yl)ethanamine]
- IC50 (IC50 value): 39.7 ± 0.16 µM
